Where “and” joins values, the source holds several entries; their conditions need not be identical. Equal entries are not always repeated. Structures can show the parent of a compound that is named as a salt. Where two headings read alike, the source gives them in different places. Square brackets hold non-standard residues; d marks the D form. Peptide text beside a SMILES is read from it. * marks the point of attachment. Lys(Me2) = CN(C)CCCC[C@H](N)C(=O)O; Lys(Me) = CNCCCC[C@H](N)C(=O)O; Cbz = O=C(OCc1ccccc1)*
What was measured:
[1] = system: Hsp90-Cyp40 interaction (C-terminal domain of Hsp90 and full-length Cyp40); assay: AlphaLISA binding assay, Hsp90-Cyp40 interaction; conditions: for efficacy at inhibiting the binding event between Hsp90 and Cyp40: C-terminal domain of Hsp90 and full-length Cyp40; for IC50: C-terminal domain of Hsp90 and full-length Cyp40, DMSO (1%) = 100% binding, read-out: IC50, inhibition of Hsp90-Cyp40 interaction
Protocol: The binding assays were performed using an Hsp90 (C-terminal) Inhibitor Screening Kits (cat. 50314 or 50317) purchased from BPS Bioscience. The assay was performed according to the manufacturer's protocol and utilised AlphaLISA® technology (PerkinElmer). The test compounds were dissolved in 100% DMSO and diluted with water to the desired concentration, so that the final dilution was dissolved in 5% DMSO with water. Two microlitres of the dilution was added to a 10 µL reaction so that the final concentration of DMSO was 1% in all reactions. The reactions were conducted at room temperature for 30 min in a 10 µL mixture containing assay buffer, 6 ng (24 nM) of a C-terminal Hsp90β (UniProt P08238, a.a. 527–724) or C-terminal Hsp90α (UniProt P07900, a.a. 535–732), 40 ng (60 nM) Cyp40, and the test compound. Note: for the full-length Hsp90 binding assays, C-terminal Hsp90 was replaced with 24 nM of full-length Hsp90α (Abcam cat # ab48801). After the 30 min incubation, 10 µL of buffer containing 20 µg/mL glutathione acceptor beads (Perkin Elmer) were added to the reaction mix and incubated for 30 min in the dark. Ten microlitres of 40 µg/mL streptavidin donor beads (Perkin Elmer) were then added and the final 30 µL mixture was incubated for 1 h in the dark. The AlphaLISA® signal was measured using a Tecan F200 Pro multimode plate reader.
Modifications to the side chains using the common strategy of O- and N-alkylations were the first prodrugs produced (Figure 2). Compounds LB58, LB56, LB97, and LB55 were all based on the structure of LB51 but contained polar side chains that were masked with methyl moieties (Figure 2). […] However, masking groups often affect the target binding affinity, and evaluation of these molecules in binding assays was required. A biochemical assay using AlphaLISA technology was used to evaluate the efficacy of these molecules in blocking the interaction between Hsp90 and the co-chaperone, Cyp40 (Figure 2). Each compound was incubated at multiple concentrations with the C-terminal domain of Hsp90 and full-length Cyp40. Beads specific for each protein were incubated with the reaction mixture. When the two proteins are bound to each other, the beads for one protein transfer energy to the beads of the other protein, thereby producing a signal. When the binding interaction between the two proteins is inhibited, energy transfer cannot occur, which results in no signal being produced. DMSO (1%) was used as a control, where it represents 100% binding between the two proteins.
The alpha biochemical assay was used to evaluate the efficacy of these two molecules, LB51(Ac)2–Cbz and LB63(Ac)2–Cbz, in blocking the interaction between Hsp90 and the co-chaperone, Cyp40 (Figure 6(A)). Each compound was incubated at multiple concentrations with the C-terminal domain of Hsp90 and full-length Cyp40. DMSO (1%) was used as a negative control to represent 100% binding between the two proteins, and LB51 and LB63 were used as positive controls, inhibiting the binding event. LB51(Ac)2–Cbz was ineffective at inhibiting the interaction between Hsp90 and Cyp40 (Figure 6(a)).

Caco-2 = conditions: cited from earlier work; for apparent permeability Papp: Caco-2 assays
[2] = Metabolism assay using human liver microsomes; assay type: in vitro ADME; conditions: for cleavage of acetyl or trifluoroacetyl group by human liver microsomes: 180 min incubation; for cleavage of acetyl group by human liver microsomes: after 10 min
Protocol: Human liver microsomes (Life Technologies Gibco cat. # HMMPCL) were thawed on ice and suspended in 100 mM phosphate buffer (pH 7.4) at 0.5 mg/mL. Compounds dissolved in DMSO were then added to the reaction mixture at a final concentration of 5 µM and a final DMSO concentration of 0.1%. Metabolism was initiated by adding 5 mM NADPH and the reactions were incubated at 37 °C in a water bath. Fifty microlitre aliquots of the reaction mixture were taken at various time points and added to 100 µL of cold methanol to terminate the reaction. The time points were centrifuged at 1000 × g for 5 min. Samples were stored at −20 °C until LC/MS analysis.
Using commercially available liver microsomes that contain the full set of endoplasmic reticulum-based metabolic enzymes, including Cyp450s, in an in vitro system the O- and N-dealkylation processes of LB55 were evaluated (Figure 3)[47–48]. Human liver microsomes were purchased from Life Technologies Australia Pty Ltd (catalogue number HMMCPL) and were prepared from a pool of 50 individual male and female donors. The microsomes were diluted into phosphate buffer at pH 7.4 and incubated with LB55 at 37 °C in the presence of the enzyme cofactor NADPH, which initiates the reactions. Aliquots of the reaction mixture were taken at several time points and quenched with cold methanol, which inhibits enzyme activity. The samples were immediately centrifuged at high speed to pellet the microsomes and the supernatants were analysed via LC/MS
However, for simplicity and speed of assessment we opted to identify the removal of the pro-drug moieties using LC/MS in selected-ion mode (SIM). We scanned for specific mass-to-charge ratios (m/z) based on the molecules molecular weight. […] LB55 was incubated with the human liver microsomes for 180 min and samples were taken at 0, 10, 20, 30, 60, 120, and 180 min and analysed via LC/MS in SIM mode. The scanning range was set at m/z 600–800, as this range would capture both the parent LB55 and any demethylated metabolites including LB51 (Figure 3).
Using the same commercially available liver microsomal assay described earlier, we evaluated the removal of acetylated and trifluoroacetylated amino acids. The studies were performed on three amino acids on LB51 that required protecting groups: serine, tyrosine, and lysine (Figure 4).

mouse liver = assay: Metabolism assay in a mouse (liver extract, LC/MS); assay type: in vivo; conditions: IP injection 59.4 mg/kg, 1 h
Protocol: Mice were purchased from Australian BioResources (ABR) (Moss Vale, NSW, Australia) at 7 weeks of age and shipped to a specific pathogen-free facility at UNSW Biological Resources Centre (Sydney, Australia) with 12 h light/dark cycles. Following 1 week of acclimatisation, mice were injected in the intraperitoneal space with LB55 (1.2 mg in 120 µL Milli-Q water). One hour later, mice were euthanised by CO2 asphyxiation and the liver was collected for drug extraction. All mouse experiments were approved by the UNSW Animal Care and Ethics Committee. To extract the compound for LC/MS analysis, the liver tissue was powdered in a mortar and pestle that had been pre-cooled with liquid nitrogen. The tissue was then homogenised in phosphate buffered saline (pH 7.4) by sonication for 2 h. The homogenate was then centrifuged at 800 × g for 10 min at 4 °C before collecting the supernatant. […] The extraction was then centrifuged at 1000 × g for 10 min at 4 °C and subsequently analysed by LC/MS.
The stability of LB55 in a mouse liver was accomplished by treating the mouse with LB55 via intraperitoneal (IP) injection at 59.4 mg/kg for 1 h. […] The mixture was then centrifuged, and the supernatant was analysed via LC/MS in SIM mode, scanning for parent LB55 and any demethylated metabolites including LB51.

[3] = target: C-terminal Hsp90 (His-tagged, competitive binding assay); assay: pull-down; competitive binding: C-terminal Hsp90 (100 µM) with LB51-tag (100 µM) 1 h at RT, then untagged compound (0–100 µM) 1 h; captured on NeutrAvidin agarose, 6 washes; Hsp90 detected by Western blot with anti-6×His; DMSO = 100% binding
Chain of C-terminal Hsp90 (His-tagged, competitive binding assay) (P08238 527-724): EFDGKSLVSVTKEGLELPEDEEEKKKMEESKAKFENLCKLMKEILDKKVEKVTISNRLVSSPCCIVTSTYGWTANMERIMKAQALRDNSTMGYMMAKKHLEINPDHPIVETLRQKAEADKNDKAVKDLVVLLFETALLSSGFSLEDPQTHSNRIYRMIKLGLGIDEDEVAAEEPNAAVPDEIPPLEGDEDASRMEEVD

C-terminal Hsp90β [4] = target: T1, C-terminal Hsp90β (UniProt P08238, a.a. 527–724) or C-terminal Hsp90α (UniProt P07900, a.a. 535–732) (UniProt P08238); assay: AlphaScreen or HTRF; AlphaLISA competition (BPS Bioscience kit): 24 nM C-terminal Hsp90, 60 nM Cyp40 and test compound in 10 µL assay buffer, 1% DMSO, room temperature, 30 min; then glutathione acceptor beads and streptavidin donor beads; DMSO = 100% binding
C-terminal Hsp90β [5] = target: T1, C-terminal Hsp90β; assay: as above; remark: listed apart in the source

CNCCCC[C@@H]1NC(=O)[C@H](Cc2ccccc2)NC(=O)[C@H](Cc2ccc(OC)cc2)NC(=O)[C@H](CO)NC(=O)[C@H](CC(N)=O)NC1=O [LB97] (cyclo([Lys(Me)]NSY(Me)F))
efficacy at inhibiting the binding event between Hsp90 and Cyp40 [1]: most effective | apparent permeability Papp (Caco-2): 1.9 ×10⁻⁶ cm/s

O=C(N[C@@H](CCCCNC(=O)C(F)(F)F)C(=O)O)OCC1c2ccccc2-c2ccccc21 [Fmoc-Lys(Tfa)-OH]
cleavage of acetyl or trifluoroacetyl group by human liver microsomes [2]: not cleaved

CC(=O)OC[C@@H]1NC(=O)[C@H](CC(N)=O)NC(=O)[C@H](CCCCNC(=O)OCc2ccccc2)NC(=O)[C@H](C)NC(=O)[C@H](Cc2ccc(OC(C)=O)cc2)NC1=O [LB63(Ac)2–Cbz, cyclo-Ala-Tyr(Ac)-Ser(Ac)-Asn-Lys(Cbz)] (cyclo(K(Cbz)NS(Ac)Y(Ac)A))
IC50 [1]: 10 µM

CC(=O)OC[C@H](NC(=O)OCC1c2ccccc2-c2ccccc21)C(=O)O [Fmoc-Ser(Ac)-OH]
cleavage of acetyl group by human liver microsomes [2]: mostly cleaved

COC[C@@H]1NC(=O)[C@H](CC(N)=O)NC(=O)[C@H](CCCCN(C)C)NC(=O)[C@H](Cc2ccccc2)NC(=O)[C@H](Cc2ccc(OC)cc2)NC1=O [LB55] (cyclo([Lys(Me2)]NS(Me)Y(Me)F))
metabolism by human liver microsomes (LC/MS SIM) ([2]; 5 µM, NADPH, 37 °C, 180 min): no metabolism occurred | metabolism in mouse liver (LC/MS of liver extract) (mouse liver): a small quantity of LB51 is produced | apparent permeability Papp (Caco-2): 5.6 ×10⁻⁶ cm/s

CC(=O)NCCCC[C@H](NC(=O)OCC1c2ccccc2-c2ccccc21)C(=O)O
cleavage of acetyl or trifluoroacetyl group by human liver microsomes [2]: not cleaved

CC(=O)OC[C@@H]1NC(=O)[C@H](CC(N)=O)NC(=O)[C@H](CCCCNC(=O)OCc2ccccc2)NC(=O)[C@H](Cc2ccccc2)NC(=O)[C@H](Cc2ccc(OC(C)=O)cc2)NC1=O [LB51(Ac)2–Cbz, cyclo-Phe-Tyr(Ac)-Ser(Ac)-Asn-Lys(Cbz)] (cyclo(K(Cbz)NS(Ac)Y(Ac)F))
efficacy at inhibiting the binding event between Hsp90 and Cyp40 [1]: ineffective

NCCCC[C@@H]1NC(=O)[C@H](Cc2ccccc2)NC(=O)[C@H](Cc2ccc(O)cc2)NC(=O)[C@H](CO)NC(=O)[C@H](CC(N)=O)NC1=O [LB51] (cyclo(KNSYF))
efficacy at inhibiting the binding event between Hsp90 and Cyp40 [1]: most effective | IC50 [1]: 4 µM | apparent permeability Papp (Caco-2): 3.3 ×10⁻⁶ cm/s and 3 ×10⁻⁶ cm/s | membrane permeability Papp (Caco-2; backbone N-methylation study): 3 10^-6 cm/s

CC(=O)Oc1ccc(C[C@H](NC(=O)OCC2c3ccccc3-c3ccccc32)C(=O)O)cc1 [Fmoc-Tyr(Ac)-OH]
cleavage of acetyl group by human liver microsomes [2]: mostly cleaved

C[C@@H]1NC(=O)[C@H](Cc2ccc(O)cc2)NC(=O)[C@H](CO)NC(=O)[C@H](CC(N)=O)NC(=O)[C@H](CCCCN)NC1=O [LB63] (cyclo(KNSYA))
IC50 [1]: 2 µM | apparent permeability Papp (Caco-2): 0.9 ×10⁻⁶ cm/s

B1: LB63(Ac)2–Cbz (peptide)
peptide: cyclo(K(Cbz)NS(Ac)Y(Ac)A)
SMILES: CC(=O)OC[C@@H]1NC(=O)[C@H](CC(N)=O)NC(=O)[C@H](CCCCNC(=O)OCc2ccccc2)NC(=O)[C@H](C)NC(=O)[C@H](Cc2ccc(OC(C)=O)cc2)NC1=O
IC50 [3]: 20 µM | IC50 (C-terminal Hsp90β [4]): 10 µM | IC50 (C-terminal Hsp90β [5]): > 10 µM

KNSYA (head-to-tail cyclic) [LB63]
IC50 (C-terminal Hsp90β [4]): 2 µM

KNSYF (head-to-tail cyclic) [LB51]
IC50 (C-terminal Hsp90β [4]): 4 µM

B2: LB51(Ac)2–Cbz (peptide)
peptide: cyclo(K(Cbz)NS(Ac)Y(Ac)F)
SMILES: CC(=O)OC[C@@H]1NC(=O)[C@H](CC(N)=O)NC(=O)[C@H](CCCCNC(=O)OCc2ccccc2)NC(=O)[C@H](Cc2ccccc2)NC(=O)[C@H](Cc2ccc(OC(C)=O)cc2)NC1=O
IC50 (C-terminal Hsp90β [5]): > 10 µM
